According to US7972785B2, “Biomarkers for liver fibrotic injury” (Industrial Technology Research Institute (ITRI), priority 2006, dated 2011):

What was measured:
Male Sprague-Dawley rats = experiment: Serum biochemical analysis in DMN-induced rat hepatic fibrosis model; assay type: in vivo; settings: DMN-treatment, mean ± SD; for PT (prothrombin time): rat blood; for ACP (acid phosphatase) / AFP (a-fetoprotein) / AKP (alkaline phosphatase) / Albumin / BUN (blood urea nitrogen) / Bilirubin (total bilirubin) / CHOL (cholesterol) / GOT (glutamic oxaloacetic transaminase) / GPT (glutamic pyruvic transaminase) / Globulin / LDH (lactate dehydrogenase): rat serum
Experimental: A rat hepatic fibrosis model was set up through the use of DMN. DMN is a potent hepatoxin that specifically targets the liver and can cause liver fibrosis. The histopathological changes resulting from DMN treatment involve the rapid deposition of collagen, the major protein of fibrosis and important to the process of cirrhosis. […] The DMN-induced liver fibrosis model was performed as described in Jezequel A. M. et al. (14). Male Sprague-Dawley rats (Slc:SD; Japan SLC, Shizuoka, Japan), weighing from 300 to 350 grams, were used in the experiments. To induce hepatic fibrosis over a six-week time course experiment, the rats were given DMN (Sigma, Saint Louis, Mo.), dissolved in normal saline, three consecutive days a week for the first three consecutive weeks at the dosage of 6.7 mg/kg per body weight by intraperitoneal injection. Injection time points are shown as inverted triangles in FIG. 1. Injections were at a much lower dosage than those used in other experiments where the dosage was 100 mg/kg/day. The higher dosage can cause toxicity in rat liver (21, 22).)
Two to seven rats at each time point were treated with either DMN or with an equal volume of normal saline without DMN as the control (26 DMN-treated rats and 24 control rats). Rats were weighed and sacrificed on days 11, 18, 25, 32, 39, and 46 (sacrifice time points are shown as triangles in FIG. 1A) respectively. These triangular time points were designated as weeks 1 through 6 (FIG. 1A).
The serum of each rat, 50 rats in total, was subjected to various biochemical examinations related to liver damages. Blood samples, collected from the animals at necropsy, were used to measure serum concentrations or activity of albumin, glutamic oxaloacetic transaminase (GOT), glutamic pyruvic transaminase (GPT), total bilirubin, alkaline phosphatase (AKP), acid phosphatases (ACP), α-fetoprotein (AFP), blood urea nitrogen (BUN), cholesterol (CHOL), lactate dehydrogenase (LDH), globulin, prothrombin time (PT) and blood platelets (PLT) using an Hitachi 747 and ACL 3000 clinical chemistry analyzer system (MYCO, Renton, Wash.). […] The thirteen serum markers identified in these experiments are the same serum markers for human liver fibrosis.

rat liver transcripts = experiment: Affymetrix Rat Genome U34A microarray gene expression profiling of liver of DMN-treated rats; assay type: in vivo
Source text: Protocols and reagents for hybridization, washing and staining followed Affymetrix's instructions, which may be retrieved from Affymetrix's company website. Labeled cRNA was hybridized to the Affymetrix GeneChip Test 3 Array to verify the quality prior to hybridization to the Affymetrix Rat Genome U34A Array.
The microarray images were transformed into text files containing intensity information using GENECHIP® Operating Software (GCOS) developed by ® Affymetrix. The microarray datasets were then analyzed using GENESPRING® 7.2 software (Silicon Genetics, Redwood City, Calif., U.S.A.)
Over the six week time course of the experiment, the liver tissues of 12 control animals and 12 DMN-treated rats (2 rats for each time point) were selected to perform microarray experiments. Before any statistical analyses were applied to the microarray data, reproducibility was assessed. Genes were selected as present when they were assigned a present call according to the perfect match (PM)/mismatch (MM) algorithm of Affymetrix in all gene chips (28). Of the 8799 probe sets analyzed, overall expression patterns for 2385 transcripts on the chips were reported to be present (P<0.05). […] Scattered graphs of expression levels of the 2385 transcripts represented on the microarray were compared with each other. The relationship between the experimental chips in the microarray analysis was analyzed by linear regression. Overall, there was no statistical difference, with 3.2% of transcripts deviating more than 2-fold. To investigate the time course variability, the reliable signals of these 2385 probe sets between the first and sixth week of controls, were calculated. Again, there was no statistical difference, with 4.6% of transcripts deviating more than 2-fold. In contrast, a significant scatter was found between controls and DMN-treated groups, with 28.7% of transcripts deviating more than 2-fold. […]

CN(C)N=O [DMN, Dimethylnitrosamine]
PT (prothrombin time) (Male Sprague-Dawley rats; 1-2 wk): 18 ± 4 (8) sec
PT (prothrombin time) (Male Sprague-Dawley rats; 3-4 wk): 20 ± 4 (9) sec
PT (prothrombin time) (Male Sprague-Dawley rats; 5-6 wk): 22 ± 5 (6) sec
ACP (acid phosphatase) (Male Sprague-Dawley rats; 1-2 wk): 1.9 ± 0.6 (4) mg/dl
AFP (a-fetoprotein) (Male Sprague-Dawley rats; 1-2 wk): 0.40 ± 0.19 (4) ng/dl
AKP (alkaline phosphatase) (Male Sprague-Dawley rats; 1-2 wk): 600.8 ± 93.0 (4) KA
Albumin (Male Sprague-Dawley rats; 1-2 wk): 3.9 ± 0.7 (7) g/dl
BUN (blood urea nitrogen) (Male Sprague-Dawley rats; 1-2 wk): 33 ± 4 (4) mg/dl
Bilirubin (total bilirubin) (Male Sprague-Dawley rats; 1-2 wk): 0.72 ± 0.53 (8) mg/dl
CHOL (cholesterol) (Male Sprague-Dawley rats; 1-2 wk): 77 ± 8 (4) mg/dl
GOT (glutamic oxaloacetic transaminase) (Male Sprague-Dawley rats; 1-2 wk): 661.5 ± 134.4 (8) U/l
GPT (glutamic pyruvic transaminase) (Male Sprague-Dawley rats; 1-2 wk): 459.5 ± 78.5 (8) U/l
Globulin (Male Sprague-Dawley rats; 1-2 wk): 6.7 ± 0.1 (2) g/dl
LDH (lactate dehydrogenase) (Male Sprague-Dawley rats; 1-2 wk): 414.8 ± 102.7 (4) IU/l
ACP (acid phosphatase) (Male Sprague-Dawley rats; 3-4 wk): 6.2 ± 1.1 (4) mg/dl
AFP (a-fetoprotein) (Male Sprague-Dawley rats; 3-4 wk): 0.38 ± 0.05 (4) ng/dl
AKP (alkaline phosphatase) (Male Sprague-Dawley rats; 3-4 wk): 668.3 ± 222.0 (3) KA
Albumin (Male Sprague-Dawley rats; 3-4 wk): 3.5 ± 0.6 (11) g/dl
BUN (blood urea nitrogen) (Male Sprague-Dawley rats; 3-4 wk): 36 ± 2 (4) mg/dl
Bilirubin (total bilirubin) (Male Sprague-Dawley rats; 3-4 wk): 1.01 ± 0.74 (11) mg/dl
CHOL (cholesterol) (Male Sprague-Dawley rats; 3-4 wk): 70 ± 13 (6) mg/dl
GOT (glutamic oxaloacetic transaminase) (Male Sprague-Dawley rats; 3-4 wk): 1006.1 ± 749.6 (11) U/l
GPT (glutamic pyruvic transaminase) (Male Sprague-Dawley rats; 3-4 wk): 566.6 ± 313.5 (11) U/l
Globulin (Male Sprague-Dawley rats; 3-4 wk): 5.0 ± 0.8 (4) g/dl
LDH (lactate dehydrogenase) (Male Sprague-Dawley rats; 3-4 wk): 562.0 ± 120.8 (3) IU/l
ACP (acid phosphatase) (Male Sprague-Dawley rats; 5-6 wk): 8.2 ± 0.6 (2) mg/dl
AFP (a-fetoprotein) (Male Sprague-Dawley rats; 5-6 wk): 0.35 ± 0.07 (2) ng/dl
AKP (alkaline phosphatase) (Male Sprague-Dawley rats; 5-6 wk): 468 ± 12.7 (2) KA
Albumin (Male Sprague-Dawley rats; 5-6 wk): 3.2 ± 0.1 (7) g/dl
BUN (blood urea nitrogen) (Male Sprague-Dawley rats; 5-6 wk): 31 ± 5 (2) mg/dl
Bilirubin (total bilirubin) (Male Sprague-Dawley rats; 5-6 wk): 1.13 ± 1.00 (7) mg/dl
CHOL (cholesterol) (Male Sprague-Dawley rats; 5-6 wk): 67 ± 18 (5) mg/dl
GOT (glutamic oxaloacetic transaminase) (Male Sprague-Dawley rats; 5-6 wk): 1572.9 ± 965.3 (7) U/l
GPT (glutamic pyruvic transaminase) (Male Sprague-Dawley rats; 5-6 wk): 763.6 ± 405.2 (7) U/l
Globulin (Male Sprague-Dawley rats; 5-6 wk): 3.6 ± 0.3 (2) g/dl
LDH (lactate dehydrogenase) (Male Sprague-Dawley rats; 5-6 wk): 853.5 ± 91.2 (2) IU/l
transcripts deviating more than 2-fold between controls and DMN-treated groups (rat liver transcripts; 2385 present transcripts): 28.7%
Timp1 expression elevation in DMN treated rats (rat liver transcripts; microarray): more than twenty
CD63 expression (rat liver transcripts; microarray, after DMN treatment): up-regulated
